*1 amine or outer side, *2 acyl side, *3 side chain or, on linkers, in order; H or OH if unused. Where a SMILES comes first, the peptide text is derived from it. Bridges are numbered along the chain shown (N, C = ends). [ ]: non-standard residue; d: D form. The star is where a group is joined. hPhe(3-Cl-4-CF3) = N[C@@H](CCc1ccc(C(F)(F)F)c(Cl)c1)C(=O)O; X18 = CCCCN([C@@H](Cc1ccc(C(F)(F)F)cc1)C(=O)[*:2])[*:1]; NPrPhe(4-CF3) = CCCN[C@@H](Cc1ccc(C(F)(F)F)cc1)C(=O)O; X13 = CCCN([C@@H](COC1CCC1)C(=O)[*:2])[*:1]; NMeGly(cPent) = CN[C@H](C(=O)O)C1CCCC1; Pro(4,4-F2) = O=C(O)[C@@H]1CC(F)(F)CN1; NMeD = CN[C@@H](CC(=O)O)C(=O)O; NMeL = CN[C@@H](CC(C)C)C(=O)O; Morpholide = C1CN(*)CCO1; NMeA = CN[C@@H](C)C(=O)O; Ac5c = NC1(C(=O)O)CCCC1; Aze = O=C(O)[C@@H]1CCN1; Ac4c = NC1(C(=O)O)CCC1; NEtG = CCNCC(=O)O; Sar = CNCC(=O)O
Tests used:
HRAS wild-type protein = HRAS wild-type protein (Homo sapiens, UniProt P01112); assay: Binding to HRAS by surface plasmon resonance (SPR), KD and KD ratio to KRAS
Procedure, shortened: (§1)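 Each cycle, GDP-bound biotin-Avi RAS was captured (~100–300 RU), compound concentrations were injected low to high for 75 s each at 100 µL/min, then the chip was regenerated. Buffer: HBS pH 7.4, 10 mM MgCl2, 10 µM GDP, 1 mM DTT, 4% DMSO; 30°C. KD from a 1:1 binding model.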

[1] = molecular target: GDP-bound NRAS wild-type protein (Homo sapiens, UniProt P01111); assay: Binding to NRAS by surface plasmon resonance (SPR), KD and KD ratio to KRAS
Procedure, shortened: as §1

[2] = tested on: human lung cancer strain NCI-H441; format: cell-based
Procedure, shortened: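 Signal came from […] measured per well once the reagent was added. Beforehand, cells were cultured at 37°C and 5% carbon dioxide on a compound series serially diluted in dimethyl sulfoxide.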

[3] = ratio of KD value for HRAS wild-type protein to KD value for KRAS (SPR)
[4] = ratio of KD value for GDP-bound NRAS wild-type protein to KD value for KRAS (SPR)
[5] = ratio of the KD value with respect to HRAS wild-type protein to the KD value with respect to KRAS
[6] = ratio of the KD value with respect to GDP-bound NRAS wild-type protein to the KD value with respect to KRAS
[7] = ratio of KD for HRAS wild-type protein to KD for KRAS
[8] = ratio of KD for GDP-bound NRAS wild-type protein to KD for KRAS

GDP-bound NRAS wild-type protein, sequence (P01111 whole entry): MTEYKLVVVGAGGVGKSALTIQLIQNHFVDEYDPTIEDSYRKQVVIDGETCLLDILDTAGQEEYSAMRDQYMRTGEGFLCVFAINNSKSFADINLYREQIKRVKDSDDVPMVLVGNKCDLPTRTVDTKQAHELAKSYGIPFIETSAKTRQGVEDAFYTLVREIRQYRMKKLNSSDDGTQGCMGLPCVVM
HRAS wild-type protein, sequence (P01112 whole entry): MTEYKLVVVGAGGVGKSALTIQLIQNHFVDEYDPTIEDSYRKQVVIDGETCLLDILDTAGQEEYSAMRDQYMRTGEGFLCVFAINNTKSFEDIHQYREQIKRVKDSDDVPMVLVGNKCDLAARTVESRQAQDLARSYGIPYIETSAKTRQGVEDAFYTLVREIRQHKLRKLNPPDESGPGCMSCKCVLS

SMILES	IC50 [2]	HRAS /KRAS (HRAS wild-type protein; [3])	NRAS /KRAS [1, 4]	HRAS /KRAS (HRAS wild-type protein; [5])	NRAS /KRAS [1, 6]	HRAS /KRAS (HRAS wild-type protein; [7])	NRAS /KRAS [1, 8]
CC[C@H](C)[C@@H]1NC(=O)[C@H](CC(C)C)N(C)C(=O)C[C@@H](C(=O)N2CCOCC2)N(C)C(=O)[C@H](C2CCCC2)N(C)C(=O)C2(CCCC2)NC(=O)[C@@H]2CCCN2C(=O)[C@H](CCc2ccc(C(F)(F)F)c(Cl)c2)NC(=O)CN(C)C(=O)[C@H](Cc2ccc(OC)cc2)N2CCCCC[C@@H](C2=O)N(C)C(=O)CN(C)C1=O [PP0614]	110 nM			B (a compound having 3 or more and less than 10 is denoted as B)	B (a compound having 3 or more and less than 10 is denoted as B)		
CCCCN1C(=O)[C@@H]2CCN2C(=O)[C@H](C)N(C)C(=O)[C@H]([C@@H](C)CC)NC(=O)[C@H](CC(C)C)N(C)C(=O)C[C@@H](C(=O)N2CCOCC2)N(C)C(=O)[C@H](C2CCCC2)N(C)C(=O)C2(CCCC2)NC(=O)[C@@H]2CCCN2C(=O)[C@H](CCc2ccc(C(F)(F)F)c(Cl)c2)NC(=O)CN(C)C(=O)[C@@H]1Cc1ccc(C(F)(F)F)cc1 [PP0106] ([NMeL]I[NMeA][Aze][X18][Sar][hPhe(3-Cl-4-CF3)]P[Ac5c][NMeGly(cPent)][NMeD]-Morpholide; lactam N-11)	12.3 nM					B (a compound having 3 or more and less than 10 is denoted as B)	C (A compound having a KD ratio of 0.1 or more and less than 3 is denoted as C)
CCCN1C(=O)CN(C)C(=O)CN(CC)C(=O)[C@H]([C@@H](C)CC)NC(=O)[C@H](CC(C)C)N(C)C(=O)C[C@@H](C(=O)N(C)C)NC(=O)[C@H](C2CCCC2)N(C)C(=O)C2(CCC2)NC(=O)[C@@H]2CC(F)(F)CN2C(=O)[C@H](CCc2ccc(C(F)(F)F)c(Cl)c2)NC(=O)CN(C)C(=O)[C@@H]1Cc1ccc(C(F)(F)F)cc1 [PP0370] ([NMeL]I[NEtG][Sar][NPrPhe(4-CF3)][Sar][hPhe(3-Cl-4-CF3)][Pro(4,4-F2)][Ac4c][NMeGly(cPent)]D-NMe2; lactam N-11)	63.2 nM					C (A compound having a KD ratio of 0.1 or more and less than 3 is denoted as C)	B (a compound having 3 or more and less than 10 is denoted as B)

Further lines, with some results ahead:

IC50 [2]	SMILES	HRAS /KRAS (HRAS wild-type protein; [3])	NRAS /KRAS [1, 4]	HRAS /KRAS (HRAS wild-type protein; [5])	NRAS /KRAS [1, 6]	HRAS /KRAS (HRAS wild-type protein; [7])	NRAS /KRAS [1, 8]
74.8 nM	CCCN1C(=O)[C@@H]2CCN2C(=O)[C@H](C)N(C)C(=O)[C@H]([C@@H](C)CC)NC(=O)[C@H](CC(C)C)N(C)C(=O)C[C@@H](C(=O)N2CCOCC2)N(C)C(=O)[C@H](C2CCCC2)N(C)C(=O)C2(CCC2)NC(=O)[C@@H]2CCCN2C(=O)[C@H](CCc2ccc(C(F)(F)F)c(Cl)c2)NC(=O)CN(C)C(=O)[C@@H]1COC1CCC1 [PP1818] ([NMeL]I[NMeA][Aze][X13][Sar][hPhe(3-Cl-4-CF3)]P[Ac4c][NMeGly(cPent)][NMeD]-Morpholide; lactam N-11)	B (a compound having 3 or more and less than 10 is denoted as B)	C (A compound having a KD ratio of 0.1 or more and less than 3 is denoted as C)				
17.6 nM	CCO[C@@H]1C[C@H]2C(=O)NC3(CCC3)C(=O)N(C)[C@@H](C3CCCC3)C(=O)N(C)[C@H](CC)CC(=O)N(C)[C@@H](CC3CC3)C(=O)N[C@@H]([C@@H](C)CC)C(=O)N(C)CC(=O)N(C)[C@H]3C/C=C\CCN(C3=O)C(Cc3ccc(C(F)(F)F)cc3)C(=O)N(C)CC(=O)N[C@@H](CCc3cc(F)c(C(F)(F)F)c(F)c3)C(=O)N2C1 (stereo partly drawn) [PP1631]	B (a compound having 3 or more and less than 10 is denoted as B)	A (a compound having 10 or more and less than 20 is denoted as A)				
4.6 nM	CCO[C@H]1CCN2C(=O)[C@H](CCc3cc(F)c(C(F)(F)F)c(F)c3)NC(=O)CN(C)C(=O)[C@H](Cc3ccc(C(F)(F)F)cc3)N3CCCC[C@@H](C3=O)N(C)C(=O)CN(C)C(=O)[C@H]([C@@H](C)CC)NC(=O)[C@H](CC(C)C)N(C)C(=O)C[C@@H](C(=O)N3CCOCC3)N(C)C(=O)[C@H](C3CCCC3)N(C)C(=O)C3(CCC3)NC(=O)[C@H]12 [PP1076]					B (a compound having 3 or more and less than 10 is denoted as B)	B (a compound having 3 or more and less than 10 is denoted as B)
52.7 nM	CCC[C@H]1C(=O)N[C@@H]([C@@H](C)CC)C(=O)N(C)CC(=O)N(C)[C@H]2C/C=C\CCN(C2=O)[C@@H](CC2CCC(F)(F)CC2)C(=O)N(C)CC(=O)N[C@@H](CCc2ccc(C(F)(F)F)c(OC)c2)C(=O)N2C[C@H](OCC)C[C@H]2C(=O)N(C)C2(CCC2)C(=O)N(C)[C@@H](C2CCCC2)C(=O)N(C)[C@H](C(=O)N(C)C)CC(=O)N1C [PP2348]			A (a compound having 10 or more and less than 20 is denoted as A)	A (a compound having 10 or more and less than 20 is denoted as A)		

From EP4603105A1, “PHARMACEUTICAL COMPOSITION CONTAINING CYCLIC COMPOUND HAVING SELECTIVE KRAS INHIBITORY EFFECT AGAINST HRAS AND NRAS” (CHUGAI SEIYAKU KABUSHIKI KAISHA, priority 2022, dated 2024)
